Reference: patent US20080242688A1, “Method 741” (ASTRAZENECA AB, priority 2007, published 2008)
“And” between values parts separate entries of the source, which are not always exact repeats. Identical values can stand only once.

Tests used:
[1] = molecular target: rat brain α7 receptors (Rattus norvegicus, UniProt Q05941); experiment: BTX binding, rat hippocampal membranes
Method: AZD0328 is a reversible, high affinity ligand of human recombinant and rat brain α7 receptors. […]. Systemic administration of AZD0328 occupied rat brain α7 receptors and increased the number of α7 receptor binding sites. Very low doses of AZD0328 (0.00048-0.0016 mg/kg) improved spatial working memory performance in rhesus monkeys. The pharmacological profile of AZD0328 illustrates its potential utility to improve cognitive function by activating the α7 receptor.
(§1) . In Xenopus oocytes injected with human, recombinant α7 receptor mRNA, AZD0328 activates whole cell currents (Table 2). […] In acutely dissociated rat hippocampal interneurons, AZD0328 elicits rapidly activated, desensitizing whole-cell current (Table 1), consistent with the known properties of rat neuronal α7 receptors. […] AZD0328 modulates synaptic function, consistent with the well-known role of α7 receptors as heteroreceptor modulators of glutamatergic and GABAergic synaptic function.

[2] = molecular target: T1, mouse recombinant α7 receptor (Mus musculus, UniProt P49582); experiment: Whole cell current, oocytes; type: cell-based; settings: oocyte
T1 construct: expressed in transfected cells; host or cells: Xenopus oocytes
Source text: as §1, with “In membranes prepared either from cultured, human recombinant α7 receptor-expressing, human embryonic kidney cells α7-HEK) or from rat brain hippocampus, AZD0328 competed with binding of an iodinated form of the high-affinity, selective α7 receptor antagonist snake toxin, [^125I]-α-bungarotoxin (BTX) (Table 1). In” for “. In”

[3] = molecular target: T2, 5-HT3A (Homo sapiens, UniProt P46098); experiment: Functional assays at recombinant human receptors; type: biochemical; settings: functional potency, recombinant human receptors in vitro
T2 construct: expressed in transfected cells

[4] = tested on: rats; experiment: Nicotine drug discrimination; type: in vivo, rat
[5] = Intestinal transit (charcoal meal, glass bead); settings: in vivo; rat, oral; read-out: NOAEL on intestinal motility
Method: Effects of AZD0328 on small intestinal and colorectal motility were investigated in rats using the charcoal meal test and the glass bead test, respectively (Table 3). In the first part, evaluating intestinal transit, a test meal containing charcoal as a non-absorbable marker was administered to rats. In the second part, effects of oral administration of AZD0328 on colorectal transit time was evaluated.

[6] = Single dose PK/TK, dog; type: in vivo; settings: for AUC / Cmax / Tmax: dog, in vivo, po
Source text: (§2) This section provides a summary of the pharmacokinetic and metabolism properties of AZD0328 derived from in vivo studies. […] The derived PK/TK parameters from these studies are presented in Table 4 for single dose studies (DMR4, 0619LR, 20030191PCR, DMO16, DMB10, DMW12, 50190, 0190DD and 03.330/1), and are presented in Table 5 multiple dose PK/TK studies (DMR4, 0612AR, DMB15, 50190, 0190DD and 0295AD).

[7] = Multiple dose PK/TK, dog; type: in vivo; design: AUC/dose: unit not given beside the values; settings: for AUC / Cmax / Tmax / AUC at 7 day / Cmax at 7 day / Tmax at 7 day / AUC at 35 day / Cmax at 35 day / Tmax at 35 day: dog, in vivo, po
Source text: as §2

[8] = both sexes, 1.08 mg/kg, dog 2F+2M, 0190DD, oral 1.08 mg/kg (5 μmol/kg) split in two 6 h apart, capsules, fasted
[9] = both sexes, 1.08 mg/kg, dog 2F+2M, 0190DD, oral 1.08 mg/kg (5 μmol/kg) split in two 6 h apart, capsules, fed
[10] = both sexes, 1.08 mg/kg, dog 2F+2M, 0190DD, oral 1.08 mg/kg (5 μmol/kg) split in two 6 h apart, solution, fasted
[11] = both sexes, 34.6 mg/kg, dog 2F+2M, 0190DD, 34.6 mg/kg (160 μmol/kg) split in two 6 h apart, capsules fasted, day 1
[12] = both sexes, 34.6 mg/kg, dog 2F+2M, 0190DD, 34.6 mg/kg (160 μmol/kg) split in two 6 h apart, capsules fasted, day 7
[13] = both sexes, 34.6 mg/kg, dog 2F+2M, 0190DD, 34.6 mg/kg (160 μmol/kg) split in two 6 h apart, solution fasted, day 1
[14] = both sexes, 34.6 mg/kg, dog 2F+2M, 0190DD, 34.6 mg/kg (160 μmol/kg) split in two 6 h apart, solution fasted, day 7
[15] = both sexes, 138 mg/kg, dog 2F+2M, 0190DD, 138 mg/kg (640 μmol/kg) split in two 6 h apart, capsules fed, day 1
[16] = both sexes, 138 mg/kg, dog 2F+2M, 0190DD, 138 mg/kg (640 μmol/kg) split in two 6 h apart, capsules fed, day 7
[17] = female, Beagle, 8.65 mg/kg, dog 3F, 0295AD, 8.65 mg/kg (40 μmol/kg) split in two 6 h apart, capsules fed, day 7
[18] = female, Beagle, 8.65 mg/kg, dog 3F, 0295AD, 8.65 mg/kg (40 μmol/kg) split in two 6 h apart, capsules fed, day 35
[19] = female, Beagle, 17.3 mg/kg, dog 3F, 0295AD, 17.3 mg/kg (80 μmol/kg) split in two 6 h apart, capsules fed, day 7
[20] = female, Beagle, 17.3 mg/kg, dog 3F, 0295AD, 17.3 mg/kg (80 μmol/kg) split in two 6 h apart, capsules fed, day 35
[21] = female, Beagle, 26 mg/kg, dog 6F, 0295AD, 26.0 mg/kg (120 μmol/kg) split into 17.3 and 8.7 mg/kg 6 h apart, capsules fed, day 35
[22] = female, Beagle, 34.6 mg/kg, dog 6F, 0295AD, 34.6 mg/kg (160 μmol/kg) split in two 6 h apart, capsules fed, day 7
[23] = male, Beagle, 8.65 mg/kg, dog 3M, 0295AD, 8.65 mg/kg (40 μmol/kg) split in two 6 h apart, capsules fed, day 7
[24] = male, Beagle, 8.65 mg/kg, dog 3M, 0295AD, 8.65 mg/kg (40 μmol/kg) split in two 6 h apart, capsules fed, day 35
[25] = male, Beagle, 17.3 mg/kg, dog 3M, 0295AD, 17.3 mg/kg (80 μmol/kg) split in two 6 h apart, capsules fed, day 7
[26] = male, Beagle, 17.3 mg/kg, dog 3M, 0295AD, 17.3 mg/kg (80 μmol/kg) split in two 6 h apart, capsules fed, day 35
[27] = male, Beagle, 26 mg/kg, dog 6M, 0295AD, 26.0 mg/kg (120 μmol/kg) split into 17.3 and 8.7 mg/kg 6 h apart, capsules fed, day 35
[28] = male, Beagle, 34.6 mg/kg, dog 6M, 0295AD, 34.6 mg/kg (160 μmol/kg) split in two 6 h apart, capsules fed, day 7

T1 sequence (P49582 23-502): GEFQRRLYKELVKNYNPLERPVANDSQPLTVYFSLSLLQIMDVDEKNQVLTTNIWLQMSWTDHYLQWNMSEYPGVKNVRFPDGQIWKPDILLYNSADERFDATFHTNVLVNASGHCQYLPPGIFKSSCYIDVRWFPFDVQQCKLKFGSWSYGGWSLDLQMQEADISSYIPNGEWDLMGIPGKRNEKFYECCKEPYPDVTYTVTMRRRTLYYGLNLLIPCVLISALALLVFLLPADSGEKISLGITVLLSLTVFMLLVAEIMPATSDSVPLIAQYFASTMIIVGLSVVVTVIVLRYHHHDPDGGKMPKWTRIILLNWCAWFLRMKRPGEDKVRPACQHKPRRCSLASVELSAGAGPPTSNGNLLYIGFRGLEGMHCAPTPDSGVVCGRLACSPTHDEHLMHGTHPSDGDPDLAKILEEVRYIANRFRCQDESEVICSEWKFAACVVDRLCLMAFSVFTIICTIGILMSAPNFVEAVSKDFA
Sequence of rat brain α7 receptors (Q05941 23-502): as the sequence (P49582 23-502) above, with T402A counted along it
T2 sequence (P46098 24-478): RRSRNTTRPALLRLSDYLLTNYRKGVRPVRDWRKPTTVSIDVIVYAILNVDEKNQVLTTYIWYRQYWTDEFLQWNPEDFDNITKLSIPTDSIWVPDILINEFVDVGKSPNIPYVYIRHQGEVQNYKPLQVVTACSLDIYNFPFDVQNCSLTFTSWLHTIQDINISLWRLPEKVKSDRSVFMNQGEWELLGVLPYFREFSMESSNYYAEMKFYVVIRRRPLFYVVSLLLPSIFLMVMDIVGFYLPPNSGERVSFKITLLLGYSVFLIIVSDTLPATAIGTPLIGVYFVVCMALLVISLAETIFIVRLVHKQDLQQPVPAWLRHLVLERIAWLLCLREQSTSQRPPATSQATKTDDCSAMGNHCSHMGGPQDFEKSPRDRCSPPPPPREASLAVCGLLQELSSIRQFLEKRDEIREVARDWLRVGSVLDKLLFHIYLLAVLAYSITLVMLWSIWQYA

c1cnc2c(c1)C[C@@]1(CN3CCC1CC3)O2 [AZD0328, (R)-Spiro[1-azabicyclo[2.2.2]octane-3,2′(3′H)-furo[2,3-b]pyridine]]
Ki [1]: 4.7 nM
EC50 ([2]; mouse recombinant α7): 1000 nM
Emax ([2]; mouse recombinant α7, 10 μM, read-out: Maximum response, whole cell current): 83%
functional selectivity 5-HT3A>α7 [3]: 14 fold
dose up to which nicotine-like stimulus properties were lacking ([4]; rat, sc): properties at doses up to 5.4 mg/kg
nicotine-like stimulus effects ([4]; rats trained to discriminate 0.3 mg/kg nicotine, sc): lack of nicotine-like stimulus properties
rate of responding ([4]; rats, doses up to 30 mg/kg sc): severely depressed the rate of responding
NOAEL [5]: 5.6 mg/kg
AUC [6, 8]: 68.1 ng·h/mL and 0.315 µM·h
Cmax [6, 8]: 19.2 ng/mL and 89 nM
Tmax [6, 8]: 1 to 3 h
AUC [6, 9]: 177 ng·h/mL and 0.818 µM·h
Cmax [6, 9]: 26.9 ng/mL and 124 nM
Tmax [6, 9]: 0.5 to 6 h
AUC [6, 10]: 104 ng·h/mL and 0.483 µM·h
Cmax [6, 10]: 33.1 ng/mL and 153 nM
Tmax [6, 10]: 0.5 h
F ([6]; dog 4M, 0279ZD, single oral 17.3 mg/kg (80 μmol/kg)): 0.146 ± 0.043%
F ([6]; dog 4M, 0279ZD, single oral 34.6 mg/kg (160 μmol/kg)): 0.239 ± 0.099%
AUC ([6]; male, 17.3 mg/kg, dog 4M, 0279ZD, single oral 17.3 mg/kg (80 μmol/kg)): 2530 ng·h/mL and 11.7 µM·h
AUC ([6]; male, 34.6 mg/kg, dog 4M, 0279ZD, single oral 34.6 mg/kg (160 μmol/kg)): 8280 ng·h/mL and 38.3 µM·h
AUC [7, 11]: 4430 ng·h/mL and 20.5 µM·h
Cmax [7, 11]: 694 ng/mL and 3.21 µM
Tmax [7, 11]: 1 to 3 h
AUC [7, 12]: 6970 ng·h/mL and 32.2 µM·h
Cmax [7, 12]: 2120 ng/mL and 9.79 µM
Tmax [7, 12]: 1 h
AUC [7, 13]: 4890 ng·h/mL and 22.6 µM·h
Cmax [7, 13]: 1130 ng/mL and 5.2 µM
Tmax [7, 13]: 0.5 h
AUC [7, 14]: 7200 ng·h/mL and 33.3 µM·h
Cmax [7, 14]: 1560 ng/mL and 7.22 µM
Tmax [7, 14]: 0.5 to 1 h
AUC [7, 15]: 11900 ng·h/mL and 55 µM·h
Cmax [7, 15]: 1520 ng/mL and 7.04 µM
Tmax [7, 15]: 1 to 6 h
AUC [7, 16]: 7160 ng·h/mL and 33.1 µM·h
Cmax [7, 16]: 1360 ng/mL and 6.27 µM
Tmax [7, 16]: 0.5 to 6 h
AUC/dose ([7]; dog 2F+2M, 0190DD, 34.6 mg/kg (160 μmol/kg) split in two 6 h apart, capsules fasted, day 1): 0.128 ± 0.087
AUC/dose ([7]; dog 2F+2M, 0190DD, 34.6 mg/kg (160 μmol/kg) split in two 6 h apart, solution fasted, day 1): 0.141 ± 0.014
AUC/dose ([7]; dog 2F+2M, 0190DD, 34.6 mg/kg (160 μmol/kg) split in two 6 h apart, solution fasted, day 7): 0.208 ± 0.088
AUC/dose ([7]; dog 2F+2M, 0190DD, 138 mg/kg (640 μmol/kg) split in two 6 h apart, capsules fed, day 1): 0.0859 ± 0.0530
AUC/dose ([7]; dog 2F+2M, 0190DD, 138 mg/kg (640 μmol/kg) split in two 6 h apart, capsules fed, day 7): 0.0517 ± 0.0206
AUC/dose ([7]; dog 3F, 0295AD, 8.65 mg/kg (40 μmol/kg) split in two 6 h apart, capsules fed, day 7): 0.113 ± 0.038
AUC/dose ([7]; dog 3F, 0295AD, 8.65 mg/kg (40 μmol/kg) split in two 6 h apart, capsules fed, day 35): 0.107 ± 0.017
AUC/dose ([7]; dog 3F, 0295AD, 17.3 mg/kg (80 μmol/kg) split in two 6 h apart, capsules fed, day 7): 0.246 ± 0.092
AUC/dose ([7]; dog 3F, 0295AD, 17.3 mg/kg (80 μmol/kg) split in two 6 h apart, capsules fed, day 35): 0.233 ± 0.049
AUC/dose ([7]; dog 3M, 0295AD, 8.65 mg/kg (40 μmol/kg) split in two 6 h apart, capsules fed, day 7): 0.100 ± 0.051
AUC/dose ([7]; dog 3M, 0295AD, 8.65 mg/kg (40 μmol/kg) split in two 6 h apart, capsules fed, day 35): 0.145 ± 0.039
AUC/dose ([7]; dog 3M, 0295AD, 17.3 mg/kg (80 μmol/kg) split in two 6 h apart, capsules fed, day 7): 0.223 ± 0.047
AUC/dose ([7]; dog 3M, 0295AD, 17.3 mg/kg (80 μmol/kg) split in two 6 h apart, capsules fed, day 35): 0.196 ± 0.008
AUC/dose ([7]; dog 6F, 0295AD, 26.0 mg/kg (120 μmol/kg) split into 17.3 and 8.7 mg/kg 6 h apart, capsules fed, day 35): 0.133 ± 0.036
AUC/dose ([7]; dog 6M, 0295AD, 26.0 mg/kg (120 μmol/kg) split into 17.3 and 8.7 mg/kg 6 h apart, capsules fed, day 35): 0.174 ± 0.029
AUC/dose ([7]; dog 6M, 0295AD, 34.6 mg/kg (160 μmol/kg) split in two 6 h apart, capsules fed, day 7): 0.152 ± 0.075
AUC [7, 17]: 981 ng·h/mL and 4.53 µM·h
Cmax [7, 17]: 302 ng/mL and 1.39 µM
Tmax [7, 17]: 1 to 7 h
AUC [7, 18]: 924 ng·h/mL and 4.27 µM·h
Cmax [7, 18]: 270 ng/mL and 1.25 µM
Tmax [7, 18]: 1 to 9 h
AUC at 7 day [7, 19]: 2130 ng·h/mL and 9.83 µM·h
Cmax at 7 day [7, 19]: 850 ng/mL and 3.93 µM
Tmax at 7 day [7, 19]: 0.5 to 6.5 h
AUC at 35 day [7, 20]: 2020 ng·h/mL and 9.33 µM·h
Cmax at 35 day [7, 20]: 439 ng/mL and 2.03 µM
Tmax at 35 day [7, 20]: 1 to 9 h
AUC [7, 21]: 3460 ng·h/mL and 16 µM·h
Cmax [7, 21]: 1190 ng/mL and 5.49 µM
Tmax [7, 21]: 1 to 8.5 h
AUC [7, 22]: 19.2 µM·h
AUC at 7 day [7, 22]: 4160 ± 1990 ng·h/mL
Cmax [7, 22]: 8.69 µM
Cmax at 7 day [7, 22]: 1880 ± 1060 ng/mL
Tmax at 7 day [7, 22]: 0.5 to 6.5 h
AUC at 7 day [7, 23]: 868 ng·h/mL and 4 µM·h
Cmax at 7 day [7, 23]: 286 ng/mL and 1.32 µM
Tmax at 7 day [7, 23]: 0.5 to 7 h
AUC at 35 day [7, 24]: 1250 ng·h/mL and 5.79 µM·h
Cmax at 35 day [7, 24]: 373 ng/mL and 1.73 µM
Tmax at 35 day [7, 24]: 8.5 to 9 h
AUC at 7 day [7, 25]: 1930 ng·h/mL and 8.92 µM·h
Cmax at 7 day [7, 25]: 619 ng/mL and 2.86 µM
Tmax at 7 day [7, 25]: 6.5 to 7 h
AUC at 35 day [7, 26]: 1690 ng·h/mL and 7.85 µM·h
Cmax at 35 day [7, 26]: 608 ng/mL and 2.81 µM
Tmax at 35 day [7, 26]: 1 to 9 h
AUC [7, 27]: 4530 ng·h/mL and 20.9 µM·h
Cmax [7, 27]: 8.16 µM
Tmax [7, 27]: 0.5 to 2 h
AUC [7, 28]: 5260 ng·h/mL and 24.3 µM·h
Cmax [7, 28]: 1910 ng/mL and 8.82 µM
Tmax [7, 28]: 0.5 to 7 h
